Where no end group is shown, it is not given here.
How the values were obtained:
anti-β2GPI G-3 mAb = assay: U937 monocyte adhesion to HUVEC exposed to G-3 mAb; type: cell-based, human; details: G-3 mAb preincubated with peptide, 15 μM peptide
Protocol: FIGS. 3A–3C are graphs showing inhibition of U937 monocyte cell adhesion to HUVEC upon exposure to anti-β2GPI ILA-1, ILA-3 and G-3 mAbs and increasing concentrations of the inhibitory monomer peptides A, B and C, respectively, and of unrelated peptide D as control. The percentage of inhibition of adhesion was calculated as follows: % inhibition of adhesion=CPM in the presence of anti-β2GPI mAb−CPM in the presence of anti-β2GPI mAb and the tested peptide/CPM in the presence of anti-β2GPI mAb×100 (CPM=counts/min). Each point represents mean±SD of three different experiments.
(g) Adherence of U937 monocyte cells to endothelial cells in the presence of anti-β2GPI mAbs and the inhibitory peptides. This assay was performed as previously described (Carvalho et al., 1996). Briefly, U937 cells (a monocyte/macrophage-like cell line) were pretreated with heat-aggregated gamma-globulin for 30 min at 37° C. […] Radioactivity associated with adherence was quantified by beta-scintillation spectroscopy. The results were expressed as percent of added U937 cells that adhered and are presented as the mean±SD from 3–5 replicate wells.
The adhesion of monocytes to endothelial cells (EC) is considered a marker of EC activation. The percentage of adhesion is expressed as the portion of added U937 monocyte cells adhering to the HUVEC (thus reflecting the percentage of HUVEC coverage by the monocytes). […]

[1] = system: experimental APS induced by anti-β2GPI mAb ILA-3; assay: Murine experimental APS induced by ILA-3 mAb; type: in vivo, BALB/c mice; details: mice infused with ILA-3 mAb, peptide 40 μg/mouse daily 3 days, day 15
Protocol: (§1) (i) Mice: Female BALB/c mice, aged 10–12 weeks, were purchased from Tel-Aviv University Animal House, Israel. The females were caged overnight with BALB/c males and examined for vaginal plug next morning. The presence of the plug was considered as day 0 of pregnancy in all the studied groups. (j) Induction of murine experimental APS. Mice were infused intravenously with 20 μg of each one of the anti-β2GPI ILA-1, ILA-3, and G-3 mAbs at day 0 (the day at which a vaginal plug was observed following mating) (Blank et al., 1991), 6 hours later the mice received daily 40 μg/mouse of the tested peptides during 3 days. The mice were bled and sacrificed on day 15 of pregnancy. Fetal resorptions, activated partial thromboplastin time and platelet counts (markers of the APS-equivalent in mice) were determined as described (Blank et al., 1991). Significant fetal loss, thrombocytopenia and prolonged activated thromboplastin time (aPTT) were induced in naive mice following passive intravenous administration of the three anti-β2GPI mAbs ILA-1, ILA-3 and G-3, as described in Materials and Methods, section (j). The clinical manifestations of the experimental APS were prevented by infusion of the specific peptide monomers A, B, C which were delivered to the mice with the corresponding pathogenic anti-β2GPI mAbs, as shown in Table 2. […] Similarly, mice which were preinfused with control IgM and received a cocktail of the peptide monomers (A+B+C), were not affected.

[2] = system: experimental APS induced by anti-β2GPI mAb ILA-1; assay: Murine experimental APS induced by ILA-1 mAb; type: in vivo, BALB/c mice; details: for aPTT (activated partial thromboplastin time): mice infused i.v. with 20 μg ILA-1 mAb day 0 of pregnancy; for Platelet count / % Fetal loss (Resorbed fetuses/Total fetuses): mice infused with ILA-1 mAb
Protocol: as §1

anti-β2GPI ILA-1 mAb = assay: ELISA for adhesion molecule expression on HUVEC exposed to ILA-1 mAb; type: cell-based, human; details: ILA-1 mAb preincubated with peptide
Protocol: FIG. 4 is a bar graph showing inhibition of expression of the adhesion molecules E-selectin, intracellular adhesion molecule-1 (ICAM-1) and vascular cell adhesion molecule-1 (VCAM-1) on HUVEC by specific inhibitory monomer peptides A, B, or C. To the HUVEC incubated with β2GPI, were added anti-β2GPI ILA-1, ILA-3 and G-3 mAbs with and without preincubation (2 h) with the peptide monomers A, B and C, respectively, and control peptide D. The expression of adhesion molecules was probed by ELISA employing biotinylated anti-human ICAM-1, VCAM-1, E-selectin and streptavidin-alkaline phosphatase. Each point represents mean±SD of three different experiments.
(h) ELISA for detecting the expression of adhesion molecules following exposure to anti-β2GPI mAbs and the inhibitory peptides. HUVEC cells grown in 96-well plates and preincubated with mAbs, with and without different concentrations of specific and irrelevant peptides (100 ug/ml), were washed, fixed with 0.1% glutaraldehyde, and then treated with PBS containing 0.2% Triton-X100 in order to permeabilize the cell membrane (Adamson et al., 1996). The plates were blocked with 3% BSA and incubated with biotinylated mouse anti-human E-selectin, anti-human intracellular adhesion molecule-1 (ICAM-1) or anti-human vascular cell adhesion molecule-1 (VCAM-1) (PharMingen, Torreyana Road, San Diego, Calif.) 1 μg/ml for 1 hour. The cells were then exposed to streptavidin alkaline phosphatase (Jackson) and appropriate substrate.
The enhancement of monocytes to endothelial cells followed by increase in the amount of adhesion molecules expression, as a result of exposure of endothelial cells to anti-β2GPI mAbs, has been observed previously at the laboratory of one of the present inventors. The effect of each specific peptide monomer A, B, C on the expression of the adhesion molecules E-selectin, ICAM-1 and VCAM-1 on HUVEC caused by the corresponding anti-β2GPI mAb, was examined according to Materials and Methods, section (h). […]

[3] = peptide 40 μg/mouse daily 3 days, day 15

Which “inhibition of adhesion of U937 to HUVEC” value (anti-β2GPI G-3 mAb) does the source give for CATLRVYKGG [Peptide C] here?
Its value is 92%.

What does the source list for KDKATFGTHDG [Peptide B]?
% Fetal loss (Resorbed fetuses/Total fetuses) [1]: 6 ± 2%; Platelet count [1]: 1137 cells/mm^3 × 10^−3; aPTT (activated partial thromboplastin time) [1]: 27 ± 2 s; aPTT (activated partial thromboplastin time) ([1]; listed as peptide B): 27 ± 2 s

With NTLKTPRVGG [Peptide A] as the sequence, how does the “aPTT (activated partial thromboplastin time)” value [2, 3] read?
Its value is 33 ± 4 s.

What about the “aPTT (activated partial thromboplastin time)” value ([2]; peptide 40 μg/mouse daily 3 days, day 15, listed as peptide A) of the same sequence?
The value was 33 ± 4 s.

What about the Platelet count [2] of the same sequence?
Its Platelet count is 989±103 cells/mm^3×10^3.

And the “% Fetal loss (Resorbed fetuses/Total fetuses)” value [2, 3]?
The value was 8 ± 2%.

And the Platelet count [2, 3]?
Its Platelet count is 989.

And the “% Fetal loss (Resorbed fetuses/Total fetuses)” value ([2]; peptide 40 μg/mouse daily 3 days, day 15, listed as peptide monomer A)?
The value was 8±2%.

What about the “E-selectin expression by HUVEC” value (anti-β2GPI ILA-1 mAb) of the same sequence?
The value was 0.239±0.064 O.D.

What about the “ICAM-1 expression by HUVEC” value (anti-β2GPI ILA-1 mAb) of the same sequence?
Its value is 0.204±0.072 O.D.

What about the “VCAM-1 expression by HUVEC” value (anti-β2GPI ILA-1 mAb) of the same sequence?
Its value is 0.252±0.071 O.D.

Reference: US7053178B2, “Synthetic peptides and kits for diagnosis of anti-phospholipid syndrome” (Yeda Research Development Co., LTD, priority 1998, dated 2006)
